These results are taken from PMC11945486, “TAS1R2/TAS1R3 Single-Nucleotide Polymorphisms Affect Sweet Taste Receptor Activation by Sweeteners: The SWEET Project” (Nutrients, 2025).

No end group written: not given here.

The assay has as its target T1, human TAS1R2-C9S/TAS1R3-WT (Homo sapiens, UniProt Q7RTX0+Q8TE23).
T1 construct: expressed in transfected cells; host or cells: HEK293T-Gα16gust44
T1 sequence (Q8TE23 20-839): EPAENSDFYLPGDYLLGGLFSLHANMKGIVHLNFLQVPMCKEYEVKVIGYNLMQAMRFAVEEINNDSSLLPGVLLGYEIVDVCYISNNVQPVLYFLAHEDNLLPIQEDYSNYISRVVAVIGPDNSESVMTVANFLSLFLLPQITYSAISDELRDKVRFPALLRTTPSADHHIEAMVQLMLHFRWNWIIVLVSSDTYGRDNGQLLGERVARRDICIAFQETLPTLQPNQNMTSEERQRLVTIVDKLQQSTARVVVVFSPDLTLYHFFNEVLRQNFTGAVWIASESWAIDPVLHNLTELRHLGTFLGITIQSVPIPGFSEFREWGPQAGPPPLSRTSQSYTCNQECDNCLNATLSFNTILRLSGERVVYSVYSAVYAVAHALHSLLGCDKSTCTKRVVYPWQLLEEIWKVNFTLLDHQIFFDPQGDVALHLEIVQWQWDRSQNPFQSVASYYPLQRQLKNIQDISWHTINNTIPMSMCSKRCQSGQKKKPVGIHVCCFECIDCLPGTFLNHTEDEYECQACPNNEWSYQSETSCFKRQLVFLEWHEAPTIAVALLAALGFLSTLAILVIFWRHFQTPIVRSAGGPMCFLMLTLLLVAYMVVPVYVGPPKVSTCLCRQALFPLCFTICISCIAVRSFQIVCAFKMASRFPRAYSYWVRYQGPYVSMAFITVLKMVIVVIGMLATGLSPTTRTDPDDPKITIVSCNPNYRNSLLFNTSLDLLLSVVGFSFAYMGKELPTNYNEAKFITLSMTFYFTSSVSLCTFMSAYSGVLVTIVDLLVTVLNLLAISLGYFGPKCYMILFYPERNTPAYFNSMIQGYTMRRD
T1 sequence (Q7RTX0 21-852): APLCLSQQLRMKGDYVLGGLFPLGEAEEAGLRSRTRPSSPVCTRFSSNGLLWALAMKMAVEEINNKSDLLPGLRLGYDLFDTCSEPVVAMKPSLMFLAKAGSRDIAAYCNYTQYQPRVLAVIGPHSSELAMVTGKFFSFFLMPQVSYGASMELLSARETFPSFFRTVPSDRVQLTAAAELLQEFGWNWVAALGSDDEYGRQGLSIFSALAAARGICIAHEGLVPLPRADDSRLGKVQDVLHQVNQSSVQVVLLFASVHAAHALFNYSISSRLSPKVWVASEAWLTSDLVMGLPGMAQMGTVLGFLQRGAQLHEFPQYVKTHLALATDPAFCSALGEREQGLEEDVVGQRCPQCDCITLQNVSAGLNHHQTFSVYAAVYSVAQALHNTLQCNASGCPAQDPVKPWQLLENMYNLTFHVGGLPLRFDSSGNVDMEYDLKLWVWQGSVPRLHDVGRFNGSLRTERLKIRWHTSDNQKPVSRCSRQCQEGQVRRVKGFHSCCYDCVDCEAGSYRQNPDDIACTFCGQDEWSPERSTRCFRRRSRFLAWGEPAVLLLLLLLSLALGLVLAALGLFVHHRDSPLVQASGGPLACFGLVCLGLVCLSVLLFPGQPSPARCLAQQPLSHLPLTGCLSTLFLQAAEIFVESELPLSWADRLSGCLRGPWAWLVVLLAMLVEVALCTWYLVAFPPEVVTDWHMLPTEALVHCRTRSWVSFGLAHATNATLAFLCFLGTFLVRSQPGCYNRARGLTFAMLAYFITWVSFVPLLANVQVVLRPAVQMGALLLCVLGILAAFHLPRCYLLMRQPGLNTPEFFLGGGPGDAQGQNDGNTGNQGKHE
The assay is described as follows: Calcium mobilisation assay, TAS1R2 variant C9S with TAS1R3-WT. Type of assay: cell-based. To be noted: for Max ΔF/F0: maximal signal amplitude. An excerpt: The coding sequences for TAS1R2 and TAS1R3 were commercially synthesised, and the human codon was optimised for expression in human cells. The coding sequences of human TAS1R2 and TAS1R3 were subcloned and inserted into the mammalian expression vectors pcDNA6/myc-HisA and pcDNA4/myc-HisA (Invitrogen; Thermo Fisher Scientific; Illkirch, France) between the EcoRI and NotI restriction sites, generating the plasmids pcDNA6-TAS1R2 and pcDNA4-TAS1R3, respectively. To increase protein expression in mammalian cells, an upstream start codon was used, which was a sequence called MAX, corresponding to the QBI SP163 element also described in pcDNA4-HisMax (Invitrogen; Thermo Fisher Scientific; Illkirch, France). To measure the expression level of the receptor by immunohistochemistry, we used the FLAG sequence ([…]) in the C-terminal position, which encodes the FLAG tag epitope. SNP variants of TAS1R2 and TAS1R3 were constructed based on […], respectively, using site-directed mutagenesis (Genewiz; Leipzig, Germany).
The HEK293T cells were kindly provided by Jay P. Slack (Givaudan Flavors Corporation; Cincinnati, OH, USA). HEK293T cells stably transfected with Gα16gust44 [43, 67] were seeded in poly-D-lysine-coated clear-bottom black 96-well plates (0.35 × 10^5 cells/well) in high-glucose DMEM supplemented with 2 mM GlutaMAX, 10% dialysed foetal bovine serum with penicillin/streptomycin and G418 (400 μg/mL) at 37 °C and 6.3% CO2 in a humidified atmosphere as previously reported. […] As a negative control, HEK293T cells were mock-transfected with the empty expression vector. After a further 24 h of incubation, the HEK293T cells were washed with C1 buffer (130 mM NaCl, 5 mM KCl, 10 mM HEPES pH 7.4 and 2 mM CaCl2). The 96-well plates containing the cells were then stimulated with sweet-tasting compounds. […] Different concentration ranges were tested depending on the sweet compound injected. The Ca^2+ changes were expressed as fractional changes in fluorescent light intensity: ΔF/F = (F − F0)/F0, where F was the fluorescent light intensity at each point, and F0 was the value of emitted fluorescent light prior to stimulus application. To calculate dose–response relationships, the changes in fluorescence upon stimulus application were averaged, mock-subtracted and baseline-corrected. The dose–response data obtained were adjusted using a 4-parameter logistic equation. The half-maximal effective concentrations (EC50 values) and maximal signal amplitudes were calculated using SigmaPlot software (version 15.0) (Systat Software; San Jose, CA, USA).
For in vitro calcium mobilisation assay performed on hTAS1R2-SNPs, hTAS1R3-SNPs and mTAS1R3-I60T, 6 to 7 concentrations were tested for each sweet compound, plus buffer alone. All concentration–receptor combinations were measured in duplicate, and each experiment was repeated at least 4 times (8 wells/concentration). Results were expressed for each concentration as ΔF/F mean ± SEM and represented as dose–response curves.

In the case of `C=C(C)[C@@H]1CC=C(/C=N/O)CC1` [Perillartine, perillartine], the EC50 was determined as 17.8 ± 1.2 µM, the “R1 = Variant EC50/WT EC50” value is given as 1.0 and the “Max ΔF/F0” value is 1.29 ± 0.03.
Take `O=S(=O)(O)NC1CCCCC1` [Cyclamate, cyclamate]: the EC50 worked out at 1810 ± 55 µM.
As for `C=C1C[C@@]23CC[C@H]4[C@@](C)(CCC[C@@]4(C)C(=O)O[C@@H]4O[C@H](CO)[C@@H](O)[C@H](O[C@@H]5O[C@H](CO)[C@@H](O)[C@H](O)[C@H]5O)[C@H]4O[C@@H]4O[C@H](CO)[C@@H](O)[C@H](O)[C@H]4O)[C@@H]2CC[C@]1(O[C@@H]1O[C@H](CO)[C@@H](O)[C@H](O[C@@H]2O[C@H](CO)[C@@H](O)[C@H](O)[C@H]2O)[C@H]1O[C@@H]1O[C@H](CO)[C@@H](O)[C@H](O)[C@H]1O)C3` [Rebaudioside M, rebaudioside M], the EC50 stood at 23.7 ± 1.6 µM, the “R1 = Variant EC50/WT EC50” value was determined as 1.4 and the “Max ΔF/F0” value came out at 1.18 ± 0.03.
As for `OC[C@H]1O[C@H](O[C@]2(CCl)O[C@H](CCl)[C@@H](O)[C@@H]2O)[C@H](O)[C@@H](O)[C@H]1Cl` [Sucralose], the EC50 worked out at 88 ± 15 µM, the “R1 = Variant EC50/WT EC50” value is 1.0 and the “Max ΔF/F0” value was 0.72 ± 0.05.
The like results for `CC1=CC(=O)NS(=O)(=O)O1` [Acesulfame K, acesulfame K] were, in that order, 466 ± 54 µM, 0.7 and 0.32 ± 0.01.
As for “brazzein (QDKCKKVYENYPVSKCQLANQCNYDCKLDKHARSGECFYDEKRNLQCICDYCEY; ends and bridges not checked; cysteine pairing not given here; UniProt P56552 1-54, looked up) [sweet-tasting protein obtained by recombinant production using the yeast Pichia pastoris]”, the “R1 = Variant EC50/WT EC50” value was 1.2 and the “Max ΔF/F0” value is on record as 1.14 ± 0.03.
With thaumatin, the “R1 = Variant EC50/WT EC50” value was 0.9 and the “Max ΔF/F0” value was 0.61 ± 0.01.
Turning to `COC(=O)[C@H](Cc1ccccc1)NC(=O)[C@H](CC(=O)O)NCCC(C)(C)C` [Neotame], the EC50 stood at 0.85 ± 0.16 µM, the “R1 = Variant EC50/WT EC50” value worked out at 1.0 and the “Max ΔF/F0” value was determined as 0.66 ± 0.04.
For the molecule `C[C@H](CC[C@@H](O[C@@H]1O[C@H](CO[C@@H]2O[C@H](CO)[C@@H](O)[C@H](O)[C@H]2O)[C@@H](O)[C@H](O)[C@H]1O[C@@H]1O[C@H](CO)[C@@H](O)[C@H](O)[C@H]1O)C(C)(C)O)[C@H]1CC[C@@]2(C)[C@@H]3CC=C4[C@@H](CC[C@H](O[C@@H]5O[C@H](CO[C@@H]6O[C@H](CO)[C@@H](O)[C@H](O)[C@H]6O)[C@@H](O)[C@H](O)[C@H]5O)C4(C)C)[C@]3(C)[C@H](O)C[C@]12C` [Mogroside V, mogroside V], the EC50 came to 18.6 ± 1.6 µM, the “R1 = Variant EC50/WT EC50” value turned out to be 1.1 and the “Max ΔF/F0” value was 1.32 ± 0.04.
For `COc1ccc(CCC(=O)c2c(O)cc(O[C@@H]3O[C@H](CO)[C@@H](O)[C@H](O)[C@H]3O[C@@H]3O[C@@H](C)[C@H](O)[C@@H](O)[C@H]3O)cc2O)cc1O` [NHDC, neohesperidin dihydrochalcone], in that order: 99 ± 5.2 µM, 1.3 and 0.83 ± 0.02.

B1: thaumatin (protein)
chain: ATFEIVNRCSYTVWAAASKGDAALDAGGRQLNSGESWTINVEPGTKGGKIWARTDCYFDDSGSGICKTGDCGGLLRCKRFGRPPTTLAEFSLNQYGKDYIDISNIKGFNVPMDFSPTTRGCRGVRCAADIVGQCPAKLKAPGGGCNDACTVFQTSEYCCTTGKCGPTEYSRFFKRLCPDAFSYVLDKPTTVTCPGSSNYRVTFCPTA
modifications: Eight disulfides
notes: sweet-tasting plant protein, E957
As for B1, the EC50 came to 6.6 ± 0.1 µM.
